From patent US20250361248A1, “PROTAC COMPOUND WITH CYCLOPHILIN A DEGRADATION ACTIVITY, PREPARATION METHOD THEREFOR, AND USE THEREOF” (priority 2022, published 2025)

Tests used:
[1] = biological target: CypA (Mus musculus, UniProt P17742); type: in vivo, C57BL/6 mice; details: 10 mg/kg of body weight/day from 24 h after IBV infection, 7 days after infection
[2] = biological target: T1, CypA (Homo sapiens, UniProt P62937); test: CypA degradation in A549 cells by Western Blot; type: cell-based; details: A549 cell line, 12 hours
T1 construct: A549 cells in the logarithmic phase were collected; endogenous in cells; host or cells: A549
T1 sequence (P62937 whole entry): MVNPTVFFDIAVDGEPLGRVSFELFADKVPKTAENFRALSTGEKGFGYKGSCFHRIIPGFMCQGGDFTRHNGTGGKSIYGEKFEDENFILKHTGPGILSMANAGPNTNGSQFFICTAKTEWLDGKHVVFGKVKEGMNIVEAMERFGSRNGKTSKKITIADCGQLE
Experimental: (§1) (1) A549 cells in the logarithmic phase were collected, the concentration of the cell suspension was adjusted, and 100 uL was added per well. The cells to be tested were plated to a density of 10^3-10^4 cells/well and incubated at 37° C. under 5% CO2 until the bottom of the wells was covered by a single layer of cells.
(2) Different concentrations of the compound of Formula I were added: 0, 10, 10^2, 10^3, 10^4, and 10^5 nM/well, with 3 replicate wells set, and incubated at 37° C. under 5% CO2 for 12 hours.
(1) The treated cells were scraped off from the culture medium, suspended thoroughly, and then collected by centrifugation at 300 g for 5 minutes. After washing with PBS once, the PBS was discarded. […]
(3) The specific steps for Western Blot (WB) detection were as follows: • 1) An appropriate concentration of SDS-PAGE gel was prepared: the concentration of a separating gel of 10% and the concentration of a stacking gel of 5%. • 2) Sample preparation: protein samples were prepared according to experimental requirements, centrifuged, mixed well, and loaded into the loading wells of SDS-PAGE gel. The loading volume was adjusted appropriately according to the protein quantification results. • 3) Electrophoresis: the power was turned on, and the protein samples were run at 80 volts in the stacking gel. […]

[3] = test system: A549 cells; test: Effect on A549 cell activity by CCK-8 method; type: cell-based; details: 0 to 10^5 nM, 12 hours
Experimental: as §1
(2) Different concentrations of the compound of Formula (I) were added: 0, 10, 10^2, 10^3, 10^4, and 10^5 nM/well, with 3 replicate wells set, and incubated at 37° C. under 5% CO2 for 12 hours.
• (1) 10 μL CCK8 reagent was added to the above cells in each well and reacted for 2 h. • (2) The incubation was terminated, and the culture medium in the wells was carefully aspirated. • (3) The absorbance of each well was measured using a microplate reader with a wavelength of 450 nm. • (4) The absorbance ratio between the experimental group and the control group was calculated as follows: Cell viability=(Absorbance of the experimental group−Blank control)÷(Absorbance of the control group−Blank control)×100%.

[4] = test system: IBV-/Guangxi-Jiangzhou/1352/2018; test: IBV-induced pneumonia mouse model: lung index, lung pathology and pathological scores; set-up: species or system C57BL/6 mice; details: in vivo
[5] = test system: A549 cells; test: Migration and infiltration of lung cancer cells, Transwell chambers; type: cell-based
Experimental: as §1, with “10^3 to 10^4” for “10^3-10^4”
(2) Different concentrations of the compound represented by Formula I were added: 0, 10, 10^2, 10^3, 10^4, and 10^5 nM/well, with 3 replicate wells set, and incubated at 37° C. under 5% CO2 for 12 hours.
The upper chamber of a 24-well cell culture insert ([…] pore size) was coated (no migration) or (invasive) with a matrix (1 mg/mL) and dried at 37° C. for 30 min.
(3) A549/WT and A549/CypA-cells were trypsinized, washed, and suspended in serum-free DMEM after treatment with 20 ng/ml TGF-β for 48 h.
(1) DMEM containing 10% fetal bovine serum was added to the lower chamber per approximately 5×10^4 cells inserted in the upper chamber.
(2) After incubation for 6 h (migration) or 24 h (invasion), non-migrating or […] cells residing on the upper part of the insert membrane were removed with a cotton swab.
(3) The cells that migrated to the underside of the membrane were fixed and stained with 2% crystal violet in ethanol.
(4) The stained cells were observed and counted under a Japan Olympus CKX41 microscope.

[6] = test system: rheumatoid arthritis; test: Rat rheumatoid arthritis model (Freund complete adjuvant); type: in vivo, Lewise rats; details: 10 mg/kg tail vein three times/week
Experimental: The BCG vaccine was inactivated in a water bath at 80° C. for 1 h, ground thoroughly with incomplete Freund adjuvant, and mixed well to prepare 15 mg/mL Freund complete adjuvant (FCA). Lewise rats were divided into 4 groups: blank group (PBS), untreated group (UT), treatment group 1 (compound), and treatment group 2 (MTX (methotrexate)), with 5 rats in each group and a body weight of […]. Except for the PBS group, rats were intradermally injected with 0.1 mL of FCA in the right hind paw. On day 14 after injection, rats in treatment group 1 (compound) were injected with the compound (10 mg/kg of body weight, dissolved in 100 μL of PBS) through the tail vein three times/week: rats in treatment group 2 (MTX (methotrexate)) were intraperitoneally injected with methotrexate (1.2 mg/kg of body weight) three times/week.
The circumference of the metatarsophalangeal joint was measured. The circumference of the ankle joint of the left hind paw (on the secondary lesion side) of all rats was measured once before modeling, before administration, and 3 weeks after administration, respectively, and the percentage of joint swelling was calculated.
The joint index was determined by joint swelling score before administration (Day 0) and 3 weeks after administration. Scoring was carried out based on the redness and swelling degree of the ankle and toe joints of the front and rear limbs of rats and the affected joint index, as follows: 0 for normal; 1 for the redness and swelling of one joint; 2 for the redness and swelling of two or more joints; 3 for severe redness and swelling of the paw below the ankle joint; 4 for the redness and swelling of the entire paw including the ankle joint and inability to bear weight. The limbs were scored separately; and the cumulative sum of the scores was the joint index.
(1) On the day 21 of administration, rats were euthanized after blood collection. […]
(2) Joint synovial proliferation and the degree of sub-synovial inflammation were observed under a light microscope, and synovial cell proliferation was scored.

[7] = test system: IL-1β, IL-6, TNF-α, and IFN-γ; set-up: species or system C57BL/6 mice; details: mouse, in vivo, 10 mg/kg/day

Chain of CypA (Mus musculus, UniProt P17742) (P17742 whole entry): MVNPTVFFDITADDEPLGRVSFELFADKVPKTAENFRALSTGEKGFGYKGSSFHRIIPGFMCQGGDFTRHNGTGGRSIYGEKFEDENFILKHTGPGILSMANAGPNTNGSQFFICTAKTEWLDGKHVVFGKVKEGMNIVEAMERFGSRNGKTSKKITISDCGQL

Cc1ncsc1-c1ccc(CNC(=O)[C@@H]2C[C@@H](O[Si](C)(C)C(C)(C)C)CN2C(=O)[C@@H](NC(=O)COCCCCOCCCCOc2cccc(O)c2C(=O)NC(=O)NC2CCCCC2)C(C)(C)C)cc1 [Formula I]
expression of CypA in mouse lung tissue [1]: significantly reduce | DC50 ([2]; WB grayscale analysis, read-out: half-degradation concentration on CypA): < 100 nM | degradation effect on CypA protein ([2]; WB, 0 to 10^5 nM): could be clearly observed | cell viability [3]: above 80% | lung injury (lung index, pathology, pathological scores) [4]: significantly alleviate lung injury | infiltration of lung cancer cells ([5]; A549, Transwell with matrix, 24 h): significantly reduce | migration of lung cancer cells ([5]; A549, Transwell, 6 h): significantly reduce | joint index of the ankle joint ([6]; 3 weeks after administration): reduce the joint index | joint swelling ([6]; 3 weeks after administration): significantly relieve joint swelling | inflammation of the ankle joint (ankle pathological scores, HE) ([6]; day 21 of administration): alleviate the inflammation | expression of IFN-γ in the lung tissue [7]: significantly reduce | expression of IL-1β in the lung tissue [7]: significantly reduce | expression of IL-6 in the lung tissue [7]: significantly reduce | expression of TNF-α in the lung tissue [7]: significantly reduce
